Measurements taken from patent US9464057B2, “Anti-malarial agents” (MMV MEDICINES FOR MALARIA VENTURE, priority 2013, dated 2016).
Like-named read-outs stand apart in the source and are kept apart here.

What was measured:
[1] = tested on: field isolates of Plasmodium vivax; assay: ex vivo parasite growth inhibition assay, field isolates of Plasmodium vivax; format: cell-based; conditions: P. vivax field isolates (15 isolates), read-out: Median EC50
Text: (§1) Compound 2 has also been tested against field isolates of Plasmodium falciparum (15 isolates) and Plasmodium vivax (15 isolates) using an ex vivo parasite growth inhibition assay as described in Marfurt et al., 2011, Antimicrob Agents Chemother., 55(3): 961.

[2] = tested on: field isolates of Plasmodium falciparum; assay: ex vivo parasite growth inhibition assay, field isolates of Plasmodium falciparum; format: cell-based; conditions: P. falciparum field isolates (15 isolates), read-out: Median EC50
Text: as §1

[3] = tested on: multidrug-resistant P. falciparum line Dd2; assay: P. falciparum growth inhibition by 3H-hypoxanthine incorporation; format: cell-based; conditions: Plasmodium falciparum
Experimental: The ability of pyrazole derivatives according to the invention to kill P. falciparum parasites and/or to inhibit its proliferation is assayed through their ability to inhibit Plasmodium falciparum growth determined by 3H-hypoxanthine incorporation. The assay is derived from the method originally described by Desjardin et al., 1979, Antimicrob. Agents Chemother, 16: 710-718 which was modified. The method assesses parasite growth as reflected by incorporation of radiolabeled hypoxanthine by parasites. P. falciparum in culture are exposed to graded dilutions of test compounds for 48 h and incorporation of 3H-hypoxanthine over the last 24 h into parasite nucleic acids is determined by liquid scintillation spectroscopy. The specific method is described below: The test compounds are diluted by three-fold serial dilutions, in triplicate wells, using low hypoxanthine medium (LHM) RPMI (Roswell Park Memorial Institute medium), 1640, 0.5% Albumax, 0.2% sodium bicarbonate, 0.025M HEPES, 2 mM glutamine, 50 μg/ml Gentamicin, 2.5 μg/ml hypoxanthine, pH 7.35) in sterile flat-bottomed 96 well plates. Final volume in each well is 100 μl. Triplicate control wells contain 100 μl LHM without any inhibitor.
The mixed stage parasitized red blood cells (RBCs), containing greater than 50% ring stage parasites, are diluted to 1% parasitemia using uninfected RBCs, washed two times with LHM, and diluted to 3% hematocrit with LHM. 100 μl of diluted parasites is added to each well. Thus, the final hematocrit is 1.5% with 0.5% parasitemia at the beginning of the assay.
The plates comprising the test wells are placed in a humidified chamber, gassed with 5% CO2, 5% O2, 90% N2, and placed in a 36.5° C. incubator for 24 h. After 24 h incubation, 0.25 μCi of 3H-hypoxanthine in 20 μL LHM is added to each well. Plates are returned to the chamber, gassed, and incubated for an additional 24 h. At the end of the second 24 h incubation, plates are transferred to a −80° C. freezer and stored for a minimum of 2 h. then Plates are thawed and the lysed material is transferred to EasyTabC glass fiber filters (Perkin Elmer; PE) using a Packard Filtermate 196 Cell Harvester. Filters are dried, placed in an Omnifilter Cassette (Perkin Elmer), and 30 μl of Microscint-O-high efficiency liquid scintillation cocktail (PE) is added to each 3 well. The plates are sealed with a Top-Seal for 96 well microplates (Perkin Elmer) and counted using a Packard TopCount-1 microplate liquid scintillation counter. Results are tabulated and graphed using Prism GraphPad software to determine effective EC50 values (concentration at which 50% parasite growth inhibition occurs).

[4] = tested on: Plasmodium falciparum Pf3D70087/N9; assay: in vivo therapeutic efficacy, 4-day-test in humanized mice; design: species or system NOD-scidIL2Rγnull mice engrafted with human erythrocytes; conditions: single oral dose per day for four consecutive days; for ED50: 50% inhibition of blood parasitemia by flow cytometry; for ED90: 90% inhibition of blood parasitemia by flow cytometry
Experimental: The ability of pyrazole derivatives according to the invention to show antimalarial efficacy in vivo can be tested by using the protocols described by Jimenez-Diaz et al., 2009, Antimicrob. Agents Chemother., 53:4533-4536. The therapeutic efficacy of compounds of invention against Plasmodium falciparum Pf3D70087/N9 growing in peripheral blood of NOD-scidIL2Rγnull mice engrafted with human erythrocytes. Efficacy is assessed by administering varying amounts of single oral doses of compounds per day for four consecutive days (4-day-test) and measuring their effect on blood parasitemia by flow cytometry. This assay provides effective doses of compounds capable of inhibiting 50% (ED50) and 90% (ED90) levels of parasitemia.

[5] = DD2, read-out: EC50 (concentration at which 50% parasite growth inhibition occurs)
[6] = P. falciparum Dd2, 48 h exposure, 3H-hypoxanthine incorporation over last 24 h, read-out: EC50 (concentration at which 50% parasite growth inhibition occurs)

| SMILES | EC50 [1] | EC50 [2] | EC50 [3, 5] | ED50 [4] | ED90 [4] | EC50 [3, 6] |
| --- | --- | --- | --- | --- | --- | --- |
| Cc1nn(C)c(NC(=O)Cn2c(C(C)C)nc3ccccc32)c1-c1ccc(Cl)cc1F [Compound 2, N-(4-(4-chloro-2-fluorophenyl)-1,3-dimethyl-M-pyrazol-5-yl)-2-(2-isopropyl-M-benzo[d]imidazol-1-yl)acetamide] | 10 nM | 15 nM | 5.4 nM | 1.7 mg/kg per day | 2.5 mg/kg per day |  |
| Cn1nc(C(F)(F)F)c(-c2ccc(F)cc2)c1NC(=O)C[C@H](N)Cc1ccc(F)cc1 [Compound 3, (R)-3-amino-N-(3-(trifluoromethyl)-4-(4-fluorophenyl)-1-methyl-1H-pyrazol-5-yl)-4-(4-fluorophenyl)butanamide] |  |  | 0.2 nM | 1.8 mg/kg per day | 3.0 mg/kg per day |  |
| COc1ccc(-c2c(C(F)(F)F)nn(C)c2NC(=O)Nc2ccc(F)cc2F)cc1 [Reference 1, reference compound] |  |  |  |  |  | 150 nM |
| CC(C)c1nc2ccccc2n1CC(=O)Nc1c(-c2ccc(Cl)cc2F)c(C(F)(F)F)nn1C [Compound 1, N-(4-(4-chloro-2-fluorophenyl)-3-(trifluoromethyl)-1-methyl-1H-pyrazol-5-yl)-2-(2-isopropyl-1H-benzo[d]imidazol-1-yl)acetamide] |  |  | 0.7 nM | 0.53 mg/kg per day | 0.94 mg/kg per day |  |
| C[C@@H]1CC[C@H]2[C@@H](C)C(=O)O[C@@H]3O[C@@]4(C)CC[C@@H]1[C@]32OO4 [Artemisinin, reference compound] |  |  |  |  |  | 12 nM |
| Cn1nc(C(F)(F)F)c(-c2ccc(Br)cc2)c1NC(=O)Cc1ccccc1F [Reference 2, reference compound] |  |  |  |  |  | 50 nM |
| Cc1nn(C)c(NC(=O)C[C@H](N)Cc2ccc(F)cc2)c1-c1ccc(F)cc1 [Compound 4, (R)-3-amino-4-(4-fluorophenyl)-N-(4-(4-fluorophenyl)-1,3-dimethyl-1H-pyrazol-5-yl) butanamide] |  |  | 8 nM | 3.0 mg/kg per day | 4.1 mg/kg per day |  |
| O=C1C(O)=C([C@H]2CC[C@H](c3ccc(Cl)cc3)CC2)C(=O)c2ccccc21 [Atovaquone, reference compound] |  |  |  |  |  | 1 nM |
| CCN(CC)CCCC(C)Nc1ccnc2cc(Cl)ccc12 (stereo not shown) [Chloroquine, reference compound] |  |  |  | 4.3 mg/kg per day |  |  |
